Reference: ChEMBL document CHEMBL1201862, “PubChem BioAssay data set” (2004)
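Values below derive from 48-hour exposures of cells grown in 96-well plates, with endpoints linearly interpolated between the two concentrations bracketing the appropriate inhibition level. GI50 = concentration required for 50% inhibition of growth.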 The source made the active and inactive calls. Rule as the data show it: active = GI50 up to about 1.1 µM and inactive = higher.

Experiments:
Experiment in all cases: NCI anticancer screen, dose series, 48 h
NCI-H460 = test system: NCI-H460
DLD-1 = test system: DLD-1
786-0 = test system: 786-0
M19-MEL = test system: M19-MEL
OVCAR-5 = test system: OVCAR-5
NCI-H23 = test system: NCI-H23
SR = test system: SR
SN12C = test system: SN12C
HOP-18 = test system: HOP-18
RXF 393 = test system: RXF 393
COLO 205 = test system: COLO 205
ACHN = test system: ACHN
A498 = test system: A498
KM12 = test system: KM12
HOP-92 = test system: HOP-92
OVCAR-4 = test system: OVCAR-4
LXFL 529 = test system: LXFL 529
SK-MEL-28 = test system: SK-MEL-28
U-251 = test system: U-251
HCT-15 = test system: HCT-15
DMS-114 = test system: DMS-114
SK-OV-3 = test system: SK-OV-3
HL-60 = test system: HL-60
UACC-62 = test system: UACC-62
KM-20L2 = test system: KM-20L2
SF-539 = test system: SF-539
HT-29 = test system: HT-29
M14 = test system: M14
HOP-62 = test system: HOP-62
SW-620 = test system: SW-620
OVCAR-3 = test system: OVCAR-3
SK-MEL-2 = test system: SK-MEL-2
NCI-H522 = test system: NCI-H522
DMS-273 = test system: DMS-273
HCC 2998 = test system: HCC 2998
IGROV-1 = test system: IGROV-1
SK-MEL-5 = test system: SK-MEL-5
OVCAR-8 = test system: OVCAR-8
UO-31 = test system: UO-31
UACC-257 = test system: UACC-257
HCT-116 = test system: HCT-116
EKVX = test system: EKVX
A549 = test system: A549
TK-10 = test system: TK-10
LOX IMVI = test system: LOX IMVI
SF-295 = test system: SF-295
SF-268 = test system: SF-268
SNB-75 = test system: SNB-75
K562 = test system: K562
RPMI-8226 = test system: RPMI-8226
Malme-3M = test system: Malme-3M
SNB-19 = test system: SNB-19
CCRF-CEM = test system: CCRF-CEM
MOLT-4 = test system: MOLT-4
NCI-H226 = test system: NCI-H226
XF498 = test system: XF498
MCF7 = test system: MCF7
MDA-N = test system: MDA-N
SNB-78 = test system: SNB-78
Hs-578T = test system: Hs-578T
MDA-MB-231 = test system: MDA-MB-231
T47D = test system: T47D
PC-3 = test system: PC-3
CAKI-1 = test system: CAKI-1
BT-549 = test system: BT-549
MDA-MB-435 = test system: MDA-MB-435
DU-145 = test system: DU-145

For `CSc1nc(NC2OCC(OC(C)=O)C(OC(C)=O)C2OC(C)=O)c(/N=C\C=N\c2c(NC3OCC(OC(C)=O)C(OC(C)=O)C3OC(C)=O)nc(SC)n(C)c2=O)c(=O)n1C` (configuration not stated), the GI50 (NCI-H460) was > 100 µM (inactive), the GI50 (DLD-1) was > 100 µM (inactive) and the GI50 (786-0) was > 100 µM (inactive). The GI50 (M19-MEL) was > 100 µM (inactive), the GI50 (OVCAR-5) was > 100 µM (inactive) and the GI50 (NCI-H23) was > 100 µM (inactive). The GI50 (SR) was > 100 µM (inactive), the GI50 (SN12C) was > 100 µM (inactive) and the GI50 (HOP-18) was > 100 µM (inactive). The GI50 (RXF 393) was > 100 µM (inactive), the GI50 (COLO 205) was > 100 µM (inactive) and the GI50 (ACHN) was > 100 µM (inactive). The GI50 (A498) was > 100 µM (inactive), the GI50 (KM12) was > 100 µM (inactive) and the GI50 (HOP-92) was > 100 µM (inactive). The GI50 (OVCAR-4) was > 100 µM (inactive), the GI50 (LXFL 529) was > 100 µM (inactive) and the GI50 (SK-MEL-28) was > 100 µM (inactive). The GI50 (U-251) was > 100 µM (inactive), the GI50 (HCT-15) was > 100 µM and the GI50 (DMS-114) was > 100 µM (inactive). For the same compound, the GI50 (SK-OV-3) was > 100 µM (inactive), the GI50 (HL-60) was > 100 µM (inactive) and the GI50 (UACC-62) was > 100 µM (inactive). The GI50 (KM-20L2) was > 100 µM (inactive), the GI50 (SF-539) was > 100 µM (inactive) and the GI50 (HT-29) was > 100 µM (inactive). For the same compound, the GI50 (M14) was > 100 µM (inactive), the GI50 (HOP-62) was > 100 µM (inactive) and the GI50 (SW-620) was > 100 µM (inactive). For the same compound, the GI50 (OVCAR-3) was > 100 µM (inactive), the GI50 (SK-MEL-2) was > 100 µM (inactive) and the GI50 (NCI-H522) was > 100 µM (inactive). For the same compound, the GI50 (DMS-273) was > 100 µM (inactive), the GI50 (HCC 2998) was > 100 µM (inactive) and the GI50 (IGROV-1) was > 100 µM (inactive). The GI50 (SK-MEL-5) was > 100 µM (inactive), the GI50 (OVCAR-8) was > 100 µM (inactive) and the GI50 (UO-31) was > 100 µM (inactive). The GI50 (UACC-257) was > 100 µM (inactive), the GI50 (HCT-116) was > 100 µM (inactive) and the GI50 (EKVX) was > 100 µM (inactive). The GI50 (A549) was > 100 µM (inactive), the GI50 (TK-10) was > 100 µM (inactive) and the GI50 (LOX IMVI) was > 100 µM (inactive). The GI50 (SF-295) was > 100 µM (inactive), the GI50 (SF-268) was > 100 µM (inactive) and the GI50 (SNB-75) was > 100 µM (inactive). For the same compound, the GI50 (K562) was > 100 µM (inactive), the GI50 (RPMI-8226) was > 100 µM (inactive) and the GI50 (Malme-3M) was > 100 µM (inactive). For the same compound, the GI50 (SNB-19) was 38.4 µM (inactive).
For `C#CCCCCC#Cc1ccccc1C(=O)OC`, the GI50 (NCI-H460) was > 100 µM (inactive), the GI50 (DLD-1) was 47.2 µM (inactive) and the GI50 (OVCAR-5) was 52.8 µM (inactive). For the same compound, the GI50 (NCI-H23) was 37.4 µM (inactive), the GI50 (SR) was 2.28 µM (inactive) and the GI50 (SN12C) was 35 µM (inactive). For the same compound, the GI50 (HOP-18) was > 100 µM (inactive), the GI50 (RXF 393) was 21.4 µM (inactive) and the GI50 (COLO 205) was > 100 µM (inactive). The GI50 (ACHN) was 64.3 µM (inactive), the GI50 (A498) was > 100 µM (inactive) and the GI50 (KM12) was 58.2 µM (inactive). For the same compound, the GI50 (HOP-92) was 24.9 µM (inactive), the GI50 (OVCAR-4) was 58.9 µM (inactive) and the GI50 (SK-MEL-28) was 25.8 µM (inactive). The GI50 (U-251) was 65.6 µM (inactive), the GI50 (HCT-15) was 63.8 µM and the GI50 (DMS-114) was 17.3 µM (inactive). The GI50 (SK-OV-3) was > 100 µM (inactive), the GI50 (HL-60) was 10.2 µM (inactive) and the GI50 (UACC-62) was 32.7 µM (inactive). The GI50 (KM-20L2) was 58.2 µM (inactive), the GI50 (SF-539) was > 100 µM (inactive) and the GI50 (HT-29) was 30.5 µM (inactive). The GI50 (M14) was > 100 µM (inactive), the GI50 (CCRF-CEM) was 2.91 µM (inactive) and the GI50 (HOP-62) was > 100 µM (inactive). For the same compound, the GI50 (SW-620) was 21.1 µM (inactive), the GI50 (OVCAR-3) was 32.5 µM (inactive) and the GI50 (SK-MEL-2) was 39.7 µM (inactive). The GI50 (DMS-273) was 38.3 µM (inactive), the GI50 (HCC 2998) was > 100 µM (inactive) and the GI50 (IGROV-1) was 89.3 µM (inactive). The GI50 (SK-MEL-5) was 58.6 µM (inactive), the GI50 (OVCAR-8) was 15.5 µM (inactive) and the GI50 (UO-31) was 40.5 µM (inactive). The GI50 (UACC-257) was 71.8 µM (inactive), the GI50 (HCT-116) was 11 µM (inactive) and the GI50 (EKVX) was 85.1 µM (inactive). The GI50 (A549) was > 100 µM (inactive), the GI50 (TK-10) was > 100 µM (inactive) and the GI50 (LOX IMVI) was 14.8 µM (inactive). The GI50 (SF-295) was 37.3 µM (inactive), the GI50 (SF-268) was 21 µM (inactive) and the GI50 (MOLT-4) was 12.7 µM (inactive). For the same compound, the GI50 (SNB-75) was 20.6 µM (inactive), the GI50 (NCI-H226) was 43.5 µM (inactive) and the GI50 (K562) was 9.93 µM (inactive). For the same compound, the GI50 (XF498) was 65.8 µM (inactive), the GI50 (RPMI-8226) was 13.1 µM (inactive) and the GI50 (Malme-3M) was 77.6 µM (inactive). The GI50 (SNB-19) was > 100 µM (inactive).
In the case of `COc1cc([C@@H]2c3cc4c(cc3C[C@H]3COC(=O)[C@@H]32)OCO4)cc(OC)c1OC` [DESOXYPODOPHYLLOTOXIN], the GI50 (DLD-1) is reported as 0.00843 µM (active), the GI50 (MCF7) is reported as 0.00875 µM (active) and the GI50 (786-0) is reported as 0.00372 µM (active). For the same compound, the GI50 (M19-MEL) was 0.00986 µM (active), the GI50 (OVCAR-5) was > 10.8 µM (inactive) and the GI50 (NCI-H23) was 0.00714 µM (active). The GI50 (SR) was 0.00376 µM (active), the GI50 (SN12C) was 0.00995 µM (active) and the GI50 (HOP-18) was 33.6 µM (inactive). For the same compound, the GI50 (MDA-N) was 0.00222 µM (active), the GI50 (ACHN) was 0.00393 µM (active) and the GI50 (A498) was 0.00695 µM (active). For the same compound, the GI50 (HOP-92) was 0.199 µM (active), the GI50 (SK-MEL-28) was 0.0125 µM (active) and the GI50 (U-251) was 0.00634 µM (active). The GI50 (DMS-114) was 0.00698 µM (active), the GI50 (SNB-78) was 0.00875 µM (active) and the GI50 (SK-OV-3) was 0.0803 µM (active). For the same compound, the GI50 (HL-60) was 0.00713 µM (active), the GI50 (Hs-578T) was 0.00204 µM (active) and the GI50 (MDA-MB-231) was < 0.01 µM (active). For the same compound, the GI50 (T47D) was 0.003 µM (active), the GI50 (UACC-62) was 0.00912 µM (active) and the GI50 (KM-20L2) was 0.00703 µM (active). For the same compound, the GI50 (M14) was 0.004 µM (active), the GI50 (CCRF-CEM) was 0.00865 µM (active) and the GI50 (HOP-62) was 0.0127 µM (active). The GI50 (SW-620) was 0.0091 µM (active), the GI50 (SK-MEL-2) was 0.0074 µM (active) and the GI50 (DMS-273) was 0.00728 µM (active). For the same compound, the GI50 (PC-3) was 0.00353 µM (active), the GI50 (HCC 2998) was 0.00791 µM (active) and the GI50 (IGROV-1) was 0.0103 µM (active). The GI50 (SK-MEL-5) was 0.00791 µM (active), the GI50 (CAKI-1) was 0.00711 µM (active) and the GI50 (OVCAR-8) was 0.00721 µM (active). The GI50 (UO-31) was 0.0986 µM (active), the GI50 (UACC-257) was 0.00828 µM (active) and the GI50 (EKVX) was 0.005 µM (active). The GI50 (BT-549) was < 0.01 µM (active), the GI50 (A549) was 0.00885 µM (active) and the GI50 (TK-10) was < 0.01 µM (active). The GI50 (SF-295) was 0.00632 µM (active), the GI50 (MDA-MB-435) was 0.00261 µM (active) and the GI50 (DU-145) was 0.00273 µM (active). For the same compound, the GI50 (SF-268) was 0.00843 µM (active), the GI50 (MOLT-4) was 0.00893 µM (active) and the GI50 (SNB-75) was 0.0655 µM (active). The GI50 (NCI-H226) was 0.00733 µM (active), the GI50 (K562) was 0.0074 µM (active) and the GI50 (XF498) was 0.00859 µM (active). For the same compound, the GI50 (Malme-3M) was 0.0149 µM (active) and the GI50 (SNB-19) was 0.0092 µM (active).
